Reference: US20110053991A1, “Treatment of Histone Deacetylase Mediated Disorders” (priority 2007, published 2011)
Blank lines part the entries; values can stand above or below the compound they belong to.

Key:
Type in all cases: cell-based
Nalm-6 = assay: MTT assay, cell number relative to vehicle; conditions: Homo sapiens, Nalm-6 (PDGFRβ-TEL), B Cell Lymphoblastic Leukemia, 48 hours
EOL-1 = assay: MTT assay, cell number relative to vehicle; conditions: Homo sapiens, EOL1, EOL-1 (FIP1L1-PDGFRα), Myeloid Leukemia, 48 hours
HAL-01 = assay: MTT assay, cell number relative to vehicle; conditions: Homo sapiens, HAL-01 (TCF3/E2A-HLF), B Cell Lymphoblastic Leukemia, 48 hours
SEM cells = assay: MTT assay, cell number relative to vehicle; conditions: SEM (MLL-AF4), Biphenotypic Leukemia with Lymphoblastic Features, 48 hours
[1] = tested on: mixed lineage leukemia cell lines; assay: Apoptotic and dead cells by flow cytometry (YO-PRO-1 / propidium iodide); conditions: 48 hours; FIG. 2
Protocol: Apoptotic and dead cells were identified by flow cytometric analysis of cells stained with propidium iodide and YO-PRO®-1. Cells undergoing apoptosis are stained with YO-PRO®-1, but are impermeable to propidium iodide. Dead cells and cells in late apoptosis are permeable to both dyes. Viable cells are not stained by either dye. Mean (+/−SEM) percentages of apoptotic and dead cells were derived from 3-7 independent experiments.
(§1) Alternatively, an ALL cell line (REH) was treated with Trichostatin A (TSA), sodium phenyl butyrate (SPB), or vehicle only for 48 hours. MTT or BrdU were added for 4 hours. The relative number of viable cells, as indicated by MTT reduction, was determined (FIG. 1A and Table 1). The relative number of proliferating cells, as indicated by BrdU-incorporation, was measured using an ELISA assay (FIG. 1B). IC50 values were calculated using non-linear regression (Table 1). The percentages of apoptotic and dead cells were determined by flow cytometric analysis of cells stained with YO-PRO®-1 and propidium iodide (FIGS. 2 and 5A). DNA content was determined by flow cytometric analysis of propidium iodide stained cells. The fractions of cells with G1, S, and G2/M phase DNA contents were determined (FIGS. 3 and 5B).

Jurkat = assay: MTT assay, cell number relative to vehicle; conditions: Homo sapiens, T Cell Lymphoblastic Leukemia, 48 hours
Molt-3 = assay: MTT assay, cell number relative to vehicle; conditions: Homo sapiens, Molt-3, T Cell Lymphoblastic Leukemia, 48 hours
Molt-4 = assay: MTT assay, cell number relative to vehicle; conditions: Homo sapiens, Molt-4, T Cell Lymphoblastic Leukemia, 48 hours
CEM = assay: MTT assay, cell number relative to vehicle; conditions: Homo sapiens, CCRF-CEM, T Cell Lymphoblastic Leukemia, 48 hours
HL-60 = assay: MTT assay, cell number relative to vehicle; conditions: Homo sapiens, HL-60, Myeloid Leukemia, 48 hours
RCH-AcV = assay: MTT assay, cell number relative to vehicle; conditions: RCH-AcV (E2A-PBX1), B Cell Lymphoblastic Leukemia, 48 hours
RS4; 11 = assay: MTT assay, cell number relative to vehicle; conditions: Homo sapiens, 11 (MLL-AF4), Biphenotypic Leukemia with Lymphoblastic Features, 48 hours
MV4-11 = assay: MTT assay, cell number relative to vehicle; conditions: Homo sapiens, MV4-11 (MLL-AF4), Biphenotypic Leukemia with Myeloid Features, 48 hours
UOCB1 = assay: MTT assay, cell number relative to vehicle; conditions: Homo sapiens, UoC-B1, UOCB1 (E2A-HLF), B Cell Lymphoblastic Leukemia, 48 hours
NOMO-1 = assay: MTT assay, cell number relative to vehicle; conditions: Homo sapiens, NOMO-1 (MLL-AF9), Biphenotypic Leukemia with Myeloid Features, 48 hours
THP-1 = assay: MTT assay, cell number relative to vehicle; conditions: Homo sapiens, THP-1 (MLL-AF9), Biphenotypic Leukemia with Myeloid Features, 48 hours
HSB-2 = assay: MTT assay, cell number relative to vehicle; conditions: HSB2, HSB-2 (LCK-TCRβ), T Cell Lymphoblastic Leukemia, 48 hours
Molm-14 = assay: MTT assay, cell number relative to vehicle; conditions: Homo sapiens, Molm-14 (MLL-AF9), Biphenotypic Leukemia with Myeloid Features, 48 hours
HEL = assay: MTT assay, cell number relative to vehicle; conditions: Homo sapiens, Myeloid Leukemia, 48 hours
KG1 = assay: MTT assay, cell number relative to vehicle; conditions: Homo sapiens, KG-1, KG1, Myeloid Leukemia, 48 hours
Molm-13 = assay: MTT assay, cell number relative to vehicle; conditions: Homo sapiens, Molm-13 (MLL-AF9), Biphenotypic Leukemia with Myeloid Features, 48 hours
REH = assay: MTT assay, cell number relative to vehicle; conditions: Homo sapiens, REH (TEL-AML1), B Cell Lymphoblastic Leukemia, 48 hours
Protocol: as §1

KOPN-8 = assay: MTT assay, cell number relative to vehicle; conditions: Homo sapiens, KOPN-8 (MLL-ENL), Biphenotypic Leukemia with Lymphoblastic Features, 48 hours
U937 = assay: MTT assay, cell number relative to vehicle; conditions: Homo sapiens, U-937, U937, Myeloid Leukemia, 48 hours

IC50 (Jurkat): 1.27 µM | IC50 (Molt-3): 0.866 µM | IC50 (Molt-4): 0.721 µM | IC50 (HL-60): 0.69 µM | IC50 (RS4; 11): 2.42 µM | IC50 (MV4-11): 0.362 µM | IC50 (THP-1): 4.45 µM | IC50 (Molm-14): 0.839 µM | IC50 (Molm-13): 0.758 µM | IC50 (U937): 1 µM
SMILES: Nc1ccccc1NC(=O)c1ccc(CNC(=O)OCc2cccnc2)cc1 [entinostat, N-(2-aminophenyl)-4-(N-(pyridin-3-ylmethoxycarbonyl)aminomethyl)benzamide]
IC50 (Nalm-6): 0.801 µM | IC50 (EOL-1): 0.12 µM | IC50 (HAL-01): 0.499 µM | IC50 (SEM cells): 0.25 µM | induction of cell death (apoptotic and dead cells) [1]: dose-dependent cell death | IC50 (CEM): 1.28 µM | IC50 (RCH-AcV): 0.723 µM | IC50 (UOCB1): 0.686 µM | IC50 (NOMO-1): 0.587 µM | IC50 (HSB-2): 1.29 µM | IC50 (HEL): 0.957 µM | IC50 (KG1): 1.54 µM | IC50 (REH): 1.5 µM | IC50 (KOPN-8): 0.396 µM

IC50 (Jurkat): 0.81 µM
SMILES: O=C(CCCCCCC(=O)Nc1ccccc1)NO [vorinostat, N′-hydroxy-N-phenyl-octanediamide]
induction of cell death (apoptotic and dead cells) [1]: dose-dependent cell death
